Test results from ChEMBL document CHEMBL3351462, “RORγt Modulators Are Potentially Useful for the Treatment of the Immune-Mediated Inflammatory Diseases” (ACS Med Chem Lett, 2014).

How the values were obtained:
[1] = system: T-cell; test: Inhibition of IL17 production in human CD4-positive T cells incubated for 3 days; type: functional, cell-based; conditions: 72 h
[2] = target: T1, Nuclear receptor ROR-gamma (Homo sapiens) (UniProt P51449); test: Modulator activity at GAL4-tagged human RORgammat ligand binding domain expressed HEK293T cells by luciferase reporter gene assay relative to untreated control; type: cell-based; conditions: HEK-293T, concentration not given here
T1 sequence (whole entry): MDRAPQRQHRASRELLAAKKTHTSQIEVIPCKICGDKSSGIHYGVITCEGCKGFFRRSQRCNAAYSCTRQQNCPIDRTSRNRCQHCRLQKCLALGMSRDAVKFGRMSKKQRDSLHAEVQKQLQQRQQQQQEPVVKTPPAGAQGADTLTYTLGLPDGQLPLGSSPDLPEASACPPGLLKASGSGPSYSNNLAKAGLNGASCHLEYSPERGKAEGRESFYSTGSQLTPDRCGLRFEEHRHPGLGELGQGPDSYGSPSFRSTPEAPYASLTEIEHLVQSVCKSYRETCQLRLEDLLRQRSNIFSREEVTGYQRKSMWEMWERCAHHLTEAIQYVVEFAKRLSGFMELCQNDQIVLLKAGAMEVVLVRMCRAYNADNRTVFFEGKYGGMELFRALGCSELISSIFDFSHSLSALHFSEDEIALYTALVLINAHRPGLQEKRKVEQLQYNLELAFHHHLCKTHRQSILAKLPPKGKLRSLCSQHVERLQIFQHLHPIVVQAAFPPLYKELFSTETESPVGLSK

[3] = target: T2, Nuclear receptor ROR-gamma (Homo sapiens, UniProt P51449); test: Binding affinity to human wild type RORgammat ligand binding domain expressed in Escherichia coli by thermofluor assay
T2 sequence (P51449 whole entry): T1 sequence (whole entry)

[4] = target: T2, Nuclear receptor ROR-gamma; test: Modulator activity at GAL4-tagged human RORgammat ligand binding domain expressed HEK293T cells by luciferase reporter gene assay; type: cell-based, HEK-293T

Row | Structure (SMILES) | IC50 [1] [nM] | inhibition [2] [%] | Kd [3] [nM] | IC50 [4] [nM]
1 | OC(c1ccncc1)(c1ccc2nc(Cl)c(Cc3ccc(Cl)cc3)c(Cl)c2c1)c1cncs1 (stereo not given) | 85 | 85 | 0.83 | 6.5
2 | Cn1cncc1C(O)(c1ccc(C(F)(F)F)nc1)c1ccc2nc(C#N)c(Cc3ccc(-n4cccn4)cc3)c(C#N)c2c1 (stereo not given) | 25 | 99 |  | 
3 | COc1nc2ccc(C(O)(c3sc(C)nc3C)c3cnnn3C)cc2c(Cl)c1Cc1ccc(C(F)(F)F)cc1 (stereo not given) | 1.5 | 94 |  | 
4 | Cn1cncc1C(O)(c1ccc(Cl)cc1)c1ccc2nc(Cl)c(Cc3ccccc3)c(Cl)c2c1 (stereo not given) | 590 | 72 |  | 
